Measurements published in patent US20250265710A1, “NON-INVASIVE LASER SPECKLE IMAGING OF EXTRA-EMBRYONIC BLOOD VESSELS” (California Institute of Technology, priority 2024, published 2025).
Where two headings read alike, the source gives them in different places.

Test system: chick embryonic heart
Experimental: These drugs were injected through the shell ventral to chick embryos at a developmental HH stage between HH16-19. The needle was guided to the embryos by the LLSCI system in live view mode.
In one example, before imaging, the eggs are injected with a drug by implementing a live view mode to ascertain the position of the embryo's heart and inserted a needle into the eggshell and the drug was injected into the area ventral to the embryo in a volume of 25-150 μL. This may result in a hole in the eggshell having a diameter between 0.6 and 0.8 mm. The hole can be covered by transparent tape to ensure the continued development of the embryo. After injection, the egg may be placed in an incubator (e.g., incubator 440 in FIG. 4) and imaged at regular intervals using a GUI (e.g., GUI 487 in FIG. 4). FIG. 22 is a schematic representation of a procedure for using LSCI imaging to determine the location of avian embryos for injection, according to an embodiment.
FIG. 23A depicts images of extraembryonic blood vessels of the control egg generated by the LSCI system 400 in FIG. 4 and images (frames) of a movie showing the dynamics of the blood vessels at time=3 minutes, time=34 minutes, time=73 minutes, time=129 minutes, time=250 minutes, and time=270 minutes. FIG. 23A also includes a time trace of BFI at these times. The time trace of the BFI is indicative of heart rate.
To quantify and characterize the effects of injecting a drug solution onto the CAM, an LSCI system was used to extract four features from the blood vessels images and blood flow graphs. FIG. 24 depicts examples of extraembryonic blood vessel images 2410, 2420 before and after feature extraction, and a heartbeat signal, according to embodiments. Blood vessel skeleton, branches, and the size of the CAM visualized. […] The LSCI system implemented the LSCI process 1400 shown in FIG. 14 to extract the features.
In various examples, the length of the blood vessels may be calculated as the total length of the vessel skeleton in the blood vessel image. In various examples, the number of branches may be determined by counting the branch points connecting the blood vessels and isolated vessel segments in the blood vessel images. In various examples, the vessel area may be obtained by calculating the area of the CAM in the blood vessel image. In various examples, the heart rate may be measured from the Fourier transform of the blood flow signal.
Tests were also performed on five eggs for each of the two Amlodipine concentrations. […] FIG. 25B includes a plot of heart rate 2530, a plot of length of blood vessels 2532, a plot of the number of branches 2540, and a plot of the size of the area vaculosa (AV) 2542 for test eggs injected with two different Amlodipine concentrations, according to embodiments.

CCOC(=O)C1=C(COCCN)NC(C)=C(C(=O)OC)C1c1ccccc1Cl (centres unmarked) [Amlodipine]
embryo viability (higher doses >60 nmol): embryo died at the time of injection, or its later development was heavily compromised | time to heart rate nadir (higher doses >60 nmol): 20 min | embryo development when incubated 7 days after the experiment (lowest dose tested (<50 nmol)): developed normally

COC(=O)C1=C(C)NC(C)=C(C(=O)OC)C1c1ccccc1[N+](=O)[O-] [Nifedipine]
time after injection without begin of return of heart rate to normal levels (higher doses above 5 nmol): > 100 min | time to heart rate nadir (higher doses above 5 nmol): 20 min | period over which heart rate dropped (low doses around 3 nmol): 40 min | heart rate an hour after injection (one egg, 50 μL solution with 3 nmole): 100 bpm | heart rate after injection (one egg, 50 μL solution with 3 nmole, dropped from 132 bpm pre-injection): 94 bpm
